Data as given in paper PMC4263135, “A general strategy for developing cell-permeable photo-modulatable organic fluorescent probes for live-cell super-resolution imaging” (Nature Communications, 2014).
Where a SMILES comes first, the peptide text is derived from it. Side-chain parts run from the residue outwards. [ ]: non-standard residue; d: D form. The star is where a group is joined. FITC = O=C1OC2(c3ccc(O)cc3Oc3cc(O)ccc32)c2ccc(NC(=S)*)cc21; Ahx = NCCCCCC(=O)O

Assays:
live BSC-1 cells = assay: Intracellular distribution of probes by confocal microscopy (Trypan blue quench); assay type: cell-based, African green monkey (Cercopithecus aethiops); conditions: 37 °C
Description: For F-actin imaging, BSC-1 cells were seeded into cell culture dishes at a density of 1.5 × 10^4 per well in growth medium (MEM supplemented with 10% FBS, 200 μl). After an overnight incubation, the cells were washed with phosphate-buffered saline (PBS, pH 7.4) for three times. A solution of the indicated probe (15 μM, 200 μl) in PBS was then added, and the cells were incubated in a 5% CO2 atmosphere at 37 °C for the indicated (5, 10, 15 and 30 min) times as mentioned in the main text. The supernatant was then discarded, and a solution of Trypan blue (200 μl, 1 mg ml^−1) in PBS was added to quench the extracellular fluorescence of the probes that were bound to either the cell membrane or the dish surface. After 2 min, Trypan blue was removed, the cells were washed gently twice with PBS and immersed in growth medium prior to optical imaging.
The fluorescence signals were detected using a Fluoview FV1000 confocal laser scanning microscope (Olympus) equipped with a × 60/1.42 numerical aperture oil-immersion objective lens (FITC channel: excitation (EX) 488 nm, emission (EM) 510–530 nm; GFP channel: EX 488 nm, EM 508–532 nm; tdEosFP channel: EX 488 nm, EM 500–522 nm; RhB channel: EX 543 nm, EM 580–630 nm; FAM channel: EX 488 nm, EM 505–540 nm and LysoTracker Red channel: excitation (EX) 543 nm, emission (EM) 560–580 nm). All fluorescence images were analyzed with Image J software.

F-actin = conditions: cited from earlier work
Text: The non-fluorescent PA-RhB fluorophore has been reported to be switched on by ultraviolet light, to be thermally reverted to a dark state, and to be excited by 560-nm laser light, emitting optimally at 600 nm in fixed cells. However, it is unknown whether the live-cell environment changes the properties of PA-RhB and whether the PA-RhB fluorophore can be used for live-cell super-resolution imaging.

Row | time to enter the live cells efficiently (live BSC-1 cells; cell uptake, probe 15 μM in PBS, Trypan blue quench of extracellular fluorescence) | Compound | intracellular distribution (live BSC-1 cells; 15 μM in PBS, 5 to 30 min, confocal fluorescence) | affinity for F-actin in live cells (F-actin)
1 | ≤ 5 min | CC[C@H](C)[C@H](NC(=O)[C@H](CC(C)C)NC(=O)[C@H](CC(=O)O)NC(=O)[C@H](C)NC(=O)[C@@H](NC(=O)CNC(=O)[C@@H](N)CCSC)C(C)C)C(=O)N[C@@H](CCCCN)C(=O)N[C@@H](CCCCN)C(=O)N[C@@H](Cc1ccccc1)C(=O)N[C@@H](CCC(=O)O)C(=O)N[C@@H](CO)C(=O)N[C@H](C(=O)N[C@@H](CO)C(=O)N[C@@H](CCCCN)C(=O)N[C@@H](CCC(=O)O)C(=O)N[C@@H](CCC(=O)O)C(=O)NCC(=O)NCC(=O)NCC(=O)NCC(=O)N[C@@H](CCCCNC(=O)CCCCCNC(=S)Nc1ccc2c(c1)C(=O)OC21c2ccc(O)cc2Oc2cc(O)ccc21)C(=O)NCC(=O)NCC(=O)N[C@H](CCCNC(=N)N)C(=O)N[C@@H](CCCNC(=N)N)C(=O)N[C@H](CCCNC(=N)N)C(=O)N[C@@H](CCCNC(=N)N)C(=O)N[C@H](CCCNC(=N)N)C(=O)N[C@@H](CCCNC(=N)N)C(=O)N[C@@H](CCCNC(=N)N)C(=O)N[C@@H](CCCNC(=N)N)C(=O)O)[C@@H](C)CC [probe 1] (H-MGVADLIKKFESISKEEGGGGK([Ahx-FITC])GG[dR]R[dR]R[dR]RRR-OH) | diffuse localization throughout the cytoplasm | –
2 | – | MGVADLIKKFESISKEE [Lifeact] | – | low affinity
